# According to patent US7846910B2, “Pharmaceutical composition, composition for screening therapeutics preventing and treating beta amyloid accumulation in brain comprising GCP II (glutamate carboxypeptidase II) as an active ingredient and method for screening using the same” (Korea Center for Disease Control and Prevention, priority 2005, dated 2010):
# Assays:
# synthetic Aβ40 or Aβ42 = assay: Aβ degradation in HEK293 cells over-expressing GCP-II (ELISA of remaining Aβ in medium); format: cell-based, human
# Protocol: To investigate the Aβ degradation by GCP-II, synthetic Aβ40 (FIG. 1A) or Aβ42 (FIG. 1B) was added to the cell culture solution containing HEK293 cells over-expressing GCP-II and HEK293 cells over-expressing NEP and IDE which are known as Aβ degrading enzymes. After reaction, the level of Aβ in the medium was measured by ELISA.
# To measure the level of Aβ degradation by GCP-II, 2 ng/uL of synthetic Aβ40 or Aβ42 (Biosource international INC.) was added to HEK293 cell culture medium. Twenty hours later, the remaining Aβ in the medium was quantified by ELISA kit (Biosource international INC.).
# HEK293 cells (human embryonic kidney cells) over-expressing GCP-II were temporarily transfected with GCP-II expression vector ‘pHA-GCPII’ or ‘pmyc-GCPII’ prepared in the above Example <1-1>, by using a transfection reagent (Lipofectamine Plus™ Reagent, Invitrogen, USA). The HEK293 cells with the temporary insertion of GCP-II were cultured in DMEM (Dulbecco's modified Eagle's medium) supplemented with 10% FBS (fetal bovine serum), 100 IU/ml of penicillin and 100[…]/ml of streptomycin. Cell lysate was obtained from the HEK293 cells by using RIPA buffer containing a protease inhibitor (aprotinin, leupeptin or phenylmethyl sulfonyl fluoride), and GCP-II protein was separated with 8% SDS-PAGE to examine the expression of GCP-II.
# HEK293 cells transfected with NEP and IDE plasmids were used as a positive control and the cells transfected with mock vector were used as a negative control. The expressions of human GCP-II and NEP in the transfected HEK293 cells were investigated by Western blot analysis using anti-GCP-II antibody (MAB544B, Maine Biotechnology) or anti-NEP antibody (L-CD10-270, Novocastra) respectively (FIG. 1C).
# Aβ40 = assay: Aβ degradation in primary cortical cells over-expressing GCP-II by lenti-virus (ELISA); format: cell-based, rat; conditions: infected by 10, 20 and 50 MOI for three days, Aβ40 added for 20 hours
# Text: To investigate whether Aβ degradation effect of GCP-II was still observed in cortical cells or not, GCP-II was over-expressed in primary cortical cells by using lenti-virus, and then the level of Aβ degradation was investigated.
# To investigate whether the expression of GCP-II can degrade Aβ in cortical cells, GCP-II was over-expressed in the primary cortical cells by using lenti-virus, followed by investigation of Aβ degradation (FIG. 2). The primary cortical cells were separated and cultured from E16 rats (Sprague-Dawley rats). To prevent non-neuronal cells, which took less than 10% in the culture cells, from spreading, the cells were transferred and further cultured in a 24 well plate (1×10^5 cells/well) containing 5-fluoro-2-deoxyuridine from the 3-6 days after the first culture. To prepare lenti-virus expressing GCP-II, GCP-II was inserted into pLentiH1.2 vector (named ‘pLentiH1.2-GCPII’, which was then introduced into 293T cells along with pLentiH1.2-GCP-II and packaging construct and envelope construct. Forty eight hours later, the concentration of the virus released in the medium was measured.
# The primary cortical cells were infected with Lenti-GCP-II for three days, to which Aβ40 was added for 20 hours. Then, the level of Aβ remaining in the medium was measured by ELISA as explained in Example 1. […]
# [1] = tested on: ACTH (adrenocorticotropic hormone); assay: GCP-II substrate specificity, MALDI-TOF molecular weight analysis; format: biochemical; conditions: 37° C. for 15 hours
# Protocol: (§1) To investigate whether GCP-II degrades Aβ specifically, GCP-II was reacted with amylin and ACTH (adrenocorticotropic hormone) or insulin β-chain at 37° C. for 15 hours, followed by measuring the molecular weight of each sample with a molecular weight analyzer (FIG. 7).
# amylin = assay: as above; format: biochemical; conditions: 37° C. for 15 hours
# Protocol: as §1
# insulin β-chain = assay: as above; format: biochemical; conditions: 37° C. for 15 hours
# Protocol: as §1
# Aβ40 and Aβ42 = assay: Aβ yield in cerebral cortex of mice treated with GCP-II inhibitor (ELISA); format: in vivo; conditions: transgenic mouse (APP Swedish/presenilin delta 9), 10 mg/kg into visceral cavity twice a week, 30 days, PBS control
# Protocol: (§2) To conform whether GCP-II can actually degrade over-expressing Aβ in vivo, the present inventors investigated Aβ degradation capacity by GCP-II inhibitor in a transgenic mouse over-expressing these Aβ. Concretely, after prepared genetically Aβover-expressing dementia model mouse (APP Swdish/presenilin delta 9 deltion, 12 weeks, The Hackson Laboratory, USA), injected into visceral cavity twice in a week, dosage of 10 mg/kg, 30 days. At this time, PBS used as a control. After finally injected GCP-II inhibitor, cerebral cortex, hippocampus and cerebellum in mouse brain was dissected and measured their weight respectively using microblance. And then, the above tissues were incubated in 6 M guanidine-hydrochrolide solution, room temperature, 4 hours and obtained supernatant by centrifugation after added iced PBS at 1/10 ratio. […] Then treated HRP (horseradish peroxidase) tagging secondly actibody, the above reactant was measured absorbance at 450 nm wavelength after treated stained using TMB (tetramethylbensidine). To conform whether GCP-II inhibitor was treated correctly, a part of the above mouse brain tissue were dissected and detected GCP-II activaty. […] In this manner, isolated sample were measured GCP-II activity using isotope meter.
# GCP-II = molecular target: T1, GCP-II (Mus musculus, UniProt O35409); assay: GCP-II activity in brain tissue of mice treated with GCP-II inhibitor (3H-NAAG); format: in vivo; conditions: 10 mg/kg twice a week, 30 days
# T1 construct: the cell membrane layer existed GCP-II was isolated from the mouse brain tissue; from tissue; host or cells: Brain membrane fraction of wild-type and APP Swedish/presenilin delta-9 transgenic mice
# T1 sequence (O35409 whole entry): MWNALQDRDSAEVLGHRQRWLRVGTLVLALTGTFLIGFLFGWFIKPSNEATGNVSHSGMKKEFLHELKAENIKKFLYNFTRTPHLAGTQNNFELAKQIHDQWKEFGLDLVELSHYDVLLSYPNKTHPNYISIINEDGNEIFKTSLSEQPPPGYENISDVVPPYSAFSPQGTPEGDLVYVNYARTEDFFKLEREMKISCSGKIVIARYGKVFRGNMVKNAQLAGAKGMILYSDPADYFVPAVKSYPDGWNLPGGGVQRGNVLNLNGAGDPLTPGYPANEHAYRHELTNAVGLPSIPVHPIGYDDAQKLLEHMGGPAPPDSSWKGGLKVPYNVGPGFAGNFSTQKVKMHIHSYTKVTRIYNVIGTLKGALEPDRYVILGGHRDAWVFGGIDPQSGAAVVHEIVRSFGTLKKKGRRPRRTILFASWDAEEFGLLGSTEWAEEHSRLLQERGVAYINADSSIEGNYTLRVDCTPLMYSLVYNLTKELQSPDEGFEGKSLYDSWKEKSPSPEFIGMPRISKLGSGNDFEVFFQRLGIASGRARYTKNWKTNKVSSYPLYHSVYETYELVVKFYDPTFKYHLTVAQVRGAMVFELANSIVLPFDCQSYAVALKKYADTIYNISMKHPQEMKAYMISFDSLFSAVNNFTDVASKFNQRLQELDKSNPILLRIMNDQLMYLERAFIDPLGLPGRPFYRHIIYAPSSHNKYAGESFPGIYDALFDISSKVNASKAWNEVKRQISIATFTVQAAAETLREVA
# Protocol: as §2
# [2] = Enzyme activity (Km) of purified rGCP-II, [3H] glutamate release; format: biochemical; conditions: 0.002-2 μM substrate, 37° C.
# Protocol: The enzyme activity of rGCP-II was saturated from 1.0 μM of N-acetyl-L-aspartyl-L-[3,4-^3H] and as a result, the Km value of rGCP-II was determined to be 0.5 μM.
# endogenous Aβ42 = assay: Degradation of endogenous Aβ from swAPP stable HEK293 cells by rGCP-II (ELISA); format: biochemical, human; conditions: #2 colony of swAPP stable cells, 0, 0.5, 2.5 and 10[…]/μL of rGCP-II
# Text: To investigate whether human GCP-II can actually degrade endogenous Aβ a cell line stably expressing ^swAPP (Swedish mutant APP) gene involved in the over-production of Aβ was constructed. For this construction, ^swAPP was introduced into HEK293 cells, followed by selection with G418. The recovered medium was reacted with rGCP-II protein and then Aβ remaining unreacted in the medium was quantified by ELISA (FIG. 8).
# The concentration of Aβ42 and the expression level of APP were used as standards for the selection of ^swAPP stable cell colonies. […] As a result, the level of endogenous Aβ42 was decreased. From the above result, it was confirmed that rGCP-II is able to degrade physiologically generated (endogenous) Aβ alike (FIG. 8B).
# [3] = tested on: Aβ monomer and oligomer (multimer); assay: Degradation of Aβ monomer and multimer by rGCP-II (Western blotting); format: biochemical; conditions: Aβ matured for 7 days, reacted 20 hours, increasing GCP-II concentration
# Protocol: Western blotting was performed using anti-Aβ antibody (6E10) more than 5 times (FIG. 9A) and the results were quantified by an image program (Image J program, NIH, USA) (FIG. 9B).
# [4] = tested on: soluble Aβ40 and insoluble Aβ40; assay: Degradation of soluble and insoluble Aβ from cerebral cortex by rGCP-II; format: biochemical
# Protocol: The cerebral cortex was homogenized in 50 mM Tris-HCl (TBS) containing protease inhibitor cocktail (pH 7.6), followed by centrifugation at 4° C. with 100,000 g for 40 minutes. The supernatant was defined as a soluble fragment. The pellet was sonicated in 6 M guanidine-HCl solution containing protease inhibitor cocktail, which was defined as an insoluble fragment. The concentrations of each soluble Aβ and insoluble Aβ were measured.
# The soluble Aβ or insoluble Aβ was co-cultured with rGCP-II.
# [5] = GCP-II over-expressing HEK293 cells, compared with mock vector
compound,measurement,setting,value
"GCP-II: transmembrane metalloproteinase glutamate carboxypeptidase II (SEQ. ID. NO: 2), over-expressed in cells from pHA-GCPII or pMyc-GCPII",decrease of Aβ40 level in cell culture medium,synthetic Aβ40 or Aβ42; [5],30%
same,decrease of Aβ42 level in cell culture medium,synthetic Aβ40 or Aβ42; [5],30%
same,level of Aβ remaining in the culture medium,"synthetic Aβ40 or Aβ42; HEK293 cells expressing GCP-II, 20 hours after addition of Aβ, compared with cells transfected with mock vector",60±5%
same,Aβ reduction in primary cortical cells,Aβ40,more than 90%
same,degradation of ACTH,[1],not degraded
same,degradation of amylin (MALDI-TOF peaks),amylin,two peaks at 1500 and 2000
same,degradation of insulin β-chain,insulin β-chain,not degraded
O=C(O)CCC(CP(=O)(O)O)C(=O)O (stereo not shown) [2-PMPA],increase of yield of Aβ42 in cerebral cortex versus control,Aβ40 and Aβ42,about 30%
same,yield of Aβ40 in cerebral cortex versus control,Aβ40 and Aβ42,no significantly difference
same,reduction of GCP-II activity in brain,GCP-II; transgenic mouse,about 30%
same,reduction of GCP-II activity in brain,GCP-II; wild type mouse,about 50%
rGCP-II: recombinant GCP-II protein expressed in insect cells (Sf21) with baculovirus vector and purified on a Ni-chelating column,Km,[2],0.5 µM
same,level of endogenous Aβ42,endogenous Aβ42,decreased
same,degradation of Aβ oligomer versus monomer,[3],reduced faster than Aβ monomer
same,reduction of insoluble Aβ40,[4]; insoluble fragment of cerebral cortex co-cultured with rGCP-II,35%
same,reduction of soluble Aβ40,[4]; soluble fragment of cerebral cortex co-cultured with rGCP-II,20%
